In US20230330045A1 (priority 2020, published 2023):
Structures can show the parent of a compound that is named as a salt. Where two headings read alike, the source gives them in different places.

Biological target: eel acetylcholinesterase (AChE) (Electrophorus electricus, UniProt O42275)
Experiment: Eel AChE fluorescence assay (AMPLEX Red kit)
Type: biochemical
Protocol: Enzymatic reactions consisted of 50 μM acetylcholine, 200 μM AIVIPLEX™ Red reagent, 1 U/mL horseradish peroxidase, 0.1 U/mL choline oxidase and 0.096 U/mL acetylcholinesterase, with 30 1% DMSO. […] Control reactions lacking acetylcholinesterase but containing 5 μM H2O2 in presence of compounds were analyzed at the same wavelength to exclude compounds that display assay interference. Dose-response curves were performed in duplicate.

[1] = eel AChE activity, at 20 μM, read-out: Percentage inhibition
[2] = read-out: inhibition of enzyme activity compared to DMSO control (screen)

eel acetylcholinesterase (AChE), sequence (O42275 24-633): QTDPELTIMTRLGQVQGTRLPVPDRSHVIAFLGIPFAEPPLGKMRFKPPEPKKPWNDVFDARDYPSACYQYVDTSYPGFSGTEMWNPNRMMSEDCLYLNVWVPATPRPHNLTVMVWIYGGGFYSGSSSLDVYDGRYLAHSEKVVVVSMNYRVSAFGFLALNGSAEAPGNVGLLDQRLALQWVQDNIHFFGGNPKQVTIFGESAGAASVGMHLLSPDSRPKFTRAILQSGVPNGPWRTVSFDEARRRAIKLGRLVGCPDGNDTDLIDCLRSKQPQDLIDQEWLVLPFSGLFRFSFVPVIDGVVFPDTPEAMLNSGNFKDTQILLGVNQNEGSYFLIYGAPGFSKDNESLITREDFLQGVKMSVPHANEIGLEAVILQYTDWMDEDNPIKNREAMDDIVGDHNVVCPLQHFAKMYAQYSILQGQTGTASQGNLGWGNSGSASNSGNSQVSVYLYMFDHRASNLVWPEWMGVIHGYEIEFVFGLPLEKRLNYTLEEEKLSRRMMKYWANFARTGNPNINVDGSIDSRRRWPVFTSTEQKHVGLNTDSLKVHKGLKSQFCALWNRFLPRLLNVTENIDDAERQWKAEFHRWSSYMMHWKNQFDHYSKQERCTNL

COc1ccc2nc3cc(Cl)ccc3c(Nc3cc(CN4CCCC4)c(O)c(CN4CCCC4)c3)c2n1 [pyronaridine]
inhibition at 20 µM [1]: 53.6%
inhibition at 20 µM [2]: > 50%

CCN(CC)CCC[C@H](C)Nc1c2ccc(Cl)cc2nc2ccc(OC)cc12 [quinacrine hydrochloride]
inhibition at 20 µM [1]: 61.8%
inhibition at 20 µM [2]: > 50%
